This assay relates to untransfected HEK cells (endogenous currents). The settings on record: incubation with mexiletine 100 μM for 24 hours, n=10, not significantly increased.

In the case of `Cc1cccc(C)c1OCC(C)N` (stereo not shown) [mexiletine], the endogenous current density came out at 1.1±0.4 pA/pF.

The record behind these values is patent US7485455B2, “Nucleic acid encoding sodium channel subunit” (Wisconsin Alumni Research Foundation, priority 2002, dated 2009).
